From patent US12624018B1, “Inhibitors of RIPK2 and medical uses thereof” (Odyssey Therapeutics, Inc., priority 2022, dated 2026)

Target: T1, RIPK2 enzyme (Homo sapiens, UniProt O43353)
T1 construct: purchased Carna 09-128
Test: RIPK2 inhibition (ADP-Glo Kinase Assay)
Format: biochemical
Conditions: RIPK2 5 nM, ATP 150 μM, MBP substrate, read-out: RIPK2 IC50
Procedure, shortened: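 Human RIPK2 (5 nM) preincubated with compound 30 min at room temperature in 50 mM HEPES pH 7.5, 10 mM MgCl2, 2 mM DTT, 1 mM EGTA, 0.01% Brij-35, 0.05% BSA; native swine MBP as substrate. ADP formed quantified by ADP-Glo luminescence; percent inhibition relative to DMSO and no-enzyme controls.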

T1 sequence (O43353 1-299 limits assumed): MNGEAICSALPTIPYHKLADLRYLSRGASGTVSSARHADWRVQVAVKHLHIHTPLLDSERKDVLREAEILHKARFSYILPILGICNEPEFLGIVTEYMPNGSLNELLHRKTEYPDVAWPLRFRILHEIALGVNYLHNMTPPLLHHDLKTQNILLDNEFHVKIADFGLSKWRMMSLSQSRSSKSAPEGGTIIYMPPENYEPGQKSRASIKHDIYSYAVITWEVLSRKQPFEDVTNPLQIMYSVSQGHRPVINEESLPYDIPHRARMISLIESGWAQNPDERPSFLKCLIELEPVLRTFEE

IC50 [nM] | Structure (SMILES)
< 2.5 | Cc1cc(CC(=O)Nc2cnn(C(C)(C)C)c2)c(F)cc1Oc1ccnc2ccc(S(=O)(=O)N3C[C@@H](C)N[C@@H](C)C3)cc12 [Compound 390, N-(1-(tert-butyl)-1H-pyrazol-4-yl)-2-(4-((6-(((3R,5S)-3,5-dimethylpiperazin-1-yl)sulfonyl)quinolin-4-yl)oxy)-2-fluoro-5-methylphenyl)acetamide]
9 | COc1ccc2nccc(Oc3cnc(CC(=O)Nc4cnn(C(C)(C)C)c4)c(F)c3)c2c1 [Compound 6, N-(1-(tert-butyl)-1H-pyrazol-4-yl)-2-(3-fluoro-5-((6-methoxyquinolin-4-yl)oxy)pyridin-2-yl)acetamide]
< 2.5 | Cc1cc(CC(=O)Nc2cnn(C(C)(C)C)c2)ccc1Oc1ccnc2ccc(S(=O)(=O)N3CCCC3)cc12 [Compound 257, N-(1-(tert-butyl)-1H-pyrazol-4-yl)-2-(3-methyl-4-((6-(pyrrolidin-1-ylsulfonyl)quinolin-4-yl)oxy)phenyl)acetamide]
< 2.5 | COCCN(C)S(=O)(=O)c1ccc2nccc(Oc3ccc(CC(=O)Nc4cnn(C(C)(C)C)c4)c(F)c3C)c2c1 [Compound 276, N-(1-(tert-butyl)-1H-pyrazol-4-yl)-2-(2-fluoro-4-((6-(N-(2-methoxyethyl)-N-methylsulfamoyl)quinolin-4-yl)oxy)-3-methylphenyl)acetamide]
< 2.5 | Cc1cc(CC(=O)Nc2cnn(C(C)(C)C)c2)ccc1Oc1ccnc2ccc(S(=O)(=O)C3CCC3)cc12 [Compound 280, N-(1-(tert-butyl)-1H-pyrazol-4-yl)-2-(4-((6-(cyclobutylsulfonyl)quinolin-4-yl)oxy)-3-methylphenyl)acetamide]
< 2.5 | Cc1cc(CC(=O)Nc2cnn(C(C)(C)C)c2)ccc1Oc1ccnc2ccc(S(=O)(=O)C3CN(C)C3)cc12 [Compound 149, N-(1-(tert-butyl)-1H-pyrazol-4-yl)-2-(3-methyl-4-((6-((1-methylazetidin-3-yl)sulfonyl)quinolin-4-yl)oxy)phenyl)acetamide]
< 2.5 | Cc1cc(CC(=O)Nc2cnn(C(C)(C)C)c2)c(F)cc1Oc1ccnc2ccc(S(=O)(=O)C3CNC3)cc12 [Compound 316, 2-(4-((6-(azetidin-3-ylsulfonyl)quinolin-4-yl)oxy)-2-fluoro-5-methylphenyl)-N-(1-(tert-butyl)-1H-pyrazol-4-yl)acetamide]
< 2.5 | Cc1cc(CC(=O)Nc2cnn(C(C)(C)C)c2)ccc1Oc1ccnc2ccc(N3C(=O)CCC3C)cc12 (single isomer, unassigned) [Compound 292, N-(1-(tert-butyl)-1H-pyrazol-4-yl)-2-(3-methyl-4-((6-(2-methyl-5-oxopyrrolidin-1-yl)quinolin-4-yl)oxy)phenyl) acetamide]
< 2.5 | Cc1cc(CC(=O)Nc2cnn(C(C)(C)C)c2)ccc1Oc1ccnc2ccc(S(=O)(=O)N(C)C)cc12 [Compound 256, N-(1-(tert-butyl)-1H-pyrazol-4-yl)-2-(4-((6-(N,N-dimethylsulfamoyl)quinolin-4-yl)oxy)-3-methylphenyl)acetamide]
20.8 | CC(C)(C)n1cc(NC(=O)Cc2ncc(Oc3ncnc4ccc(OC5CCN(CC(F)(F)F)CC5)cc34)cc2F)cn1 [Compound 112, N-(1-(tert-butyl)-1H-pyrazol-4-yl)-2-(3-fluoro-5-((6-((1-(2,2,2-trifluoroethyl)piperidin-4-yl)oxy)quinazolin-4-yl)oxy)pyridin-2-yl)acetamide]
< 2.5 | Cc1cc(CC(=O)Nc2cnn(C(C)(C)C)c2)ccc1Oc1ccnc2ccc(S(=O)(=O)C3CCOC3)cc12 (single isomer, unassigned) [Compound 199, N-(1-(tert-butyl)-1H-pyrazol-4-yl)-2-(3-methyl-4-((6-((tetrahydrofuran-3-yl)sulfonyl)quinolin-4-yl)oxy)phenyl)acetamide]
3.9 | COc1ccc2ncnc(Oc3ccc(CC(=O)Nc4cnn(C(C)(C)C)c4)c(F)c3F)c2c1 [Compound 47, N-(1-(tert-butyl)-1H-pyrazol-4-yl)-2-(2,3-difluoro-4-((6-methoxy-quinazolin-4-yl)oxy)phenyl) acetamide]
< 2.5 | CC(C)(C)n1cc(NC(=O)Cc2ccc(Oc3ccnc4ccc(S(=N)(=O)C5CC5)cc34)cc2F)cn1 (stereo not shown) [Compound 72, N-(1-(tert-butyl)-1H-pyrazol-4-yl)-2-(4-((6-(cyclopropanesulf-onimidoyl)quinolin-4-yl)oxy)-2-fluorophenyl) acetamide]
< 2.5 | Cc1cc(CC(=O)Nc2cnn(C(C)(C)C)c2)c(F)cc1Oc1ccnc2ccc(C(=O)NC3COC3)cc12 [Compound 392, 4-(4-(2-((1-(tert-butyl)-1H-pyrazol-4-yl)amino)-2-oxoethyl)-5-fluoro-2-methyl-phenoxy)-N-(oxetan-3-yl)quinoline-6-carboxamide]
< 2.5 | Cc1cc(CC(=O)Nc2cnn(C(C)(C)C)c2)ccc1Oc1ccnc2ccc(S(=O)(=O)N3CCNCC3)cc12 [Compound 119, N-(1-(tert-butyl)-1H-pyrazol-4-yl)-2-(3-methyl-4-((6-(piperazin-1-ylsulfonyl)quinolin-4-yl)oxy)phenyl)acetamide]
< 2.5 | COc1cc2nccc(Oc3cc(F)c(CC(=O)Nc4cnn(C(C)(C)C)c4)cc3C)c2cc1S(C)(=O)=O [Compound 412, N-(1-(tert-butyl)-1H-pyrazol-4-yl)-2-(2-fluoro-4-((7-methoxy-6-(methylsulfonyl)quinolin-4-yl)oxy)-5-methylphenyl) acetamide]
85.4 | COc1ccc2ncnc(Oc3cnc(CC(=O)Nc4cc(C(C)(C)C)ncn4)c(F)c3)c2c1 [Compound 33, N-(6-(tert-butyl)pyrimidin-4-yl)-2-(3-fluoro-5-((6-methoxy-quinazolin-4-yl)oxy)pyridin-2-yl)acetamide]
< 2.5 | Cc1c(Oc2ccnc3ccc(N4C(=O)CCC4C)cc23)ccc(CC(=O)Nc2cnn(C(C)(C)C)c2)c1F (single isomer, unassigned) [Compound 297, N-(1-(tert-butyl)-1H-pyrazol-4-yl)-2-(2-fluoro-3-methyl-4-((6-(2-methyl-5-oxopyrrolidin-1-yl)quinolin-4-yl)oxy)phenyl) acetamide]
< 2.5 | Cc1c(Oc2ccnc3ccc(C(=O)N4CCC(N)C4)cc23)ccc(CC(=O)Nc2cnn(C(C)(C)C)c2)c1F (single isomer, unassigned) [Compound 353, 2-(4-((6-(3-amino-pyrrolidine-1-carbonyl)quinolin-4-yl)oxy)-2-fluoro-3-methyl-phenyl)-N-(1-(tert-butyl)-1H-pyrazol-4-yl)acetamide]
< 2.5 | Cc1cc(CC(=O)Nc2cnn(C(C)(C)C)c2)c(F)cc1Oc1ccnc2ccc(-c3cnccn3)cc12 [Compound 425, N-(1-(tert-butyl)-1H-pyrazol-4-yl)-2-(2-fluoro-5-methyl-4-((6-(pyrazin-2-yl)quinolin-4-yl)oxy)phenyl)acetamide]
13.7 | COc1ccc2ncnc(Oc3ccc(CC(=O)Nc4cc(C(C)(C)C)ncn4)c(F)c3)c2c1 [Compound 32, N-(6-(tert-butyl)pyrimidin-4-yl)-2-(2-fluoro-4-((6-methoxyquinazolin-4-yl)oxy)phenyl)acetamide]
< 2.5 | Cc1cc(CC(=O)Nc2cc(C(C)(C)C)n(C)n2)ccc1Oc1ccnc2ccc(S(C)(=O)=O)cc12 [Compound 230, N-(5-(tert-butyl)-1-methyl-1H-pyrazol-3-yl)-2-(3-methyl-4-((6-(methylsulfonyl)quinolin-4-yl)oxy)phenyl)acetamide]
